# Laboratory results: patent publication US9303033B2, “Pyrazolopyrimidines and related heterocycles as CK2 inhibitors” (SENHWA BIOSCIENCES, INC., priority 2009, dated 2016)
# Read-outs that look alike come from different tables or passages of the source.
# Tests used:
# [1] = test system: BxPC3 human pancreatic adenocarcinoma cells; assay: Cell proliferation assay with Alamar Blue (AB), BxPC3; assay type: cell-based
# Method: (§1) A representative cell-proliferation assay protocol using Alamar Blue dye (stored at 4° C., use 20 ul per well) is described hereafter.
# (§2) a. Split and trypsinize cells.
# (§3) b. Count cells using hemocytometer.
# (§4) c. Plate 4,000-5,000 cells per well in 100 μl of medium and seed into a 96-well plate according to the following plate layout. Add cell culture medium only to wells B10 to B12.
# (§5) d. Add 100 μl of 2× drug dilution to each well in a concentration shown in the plate layout above. […] Total volume is 200 μl/well.
# (§6) e. Incubate four (4) days at 37° C., 5% CO2 in a humidified incubator.
# (§7) f. Add […] Alamar Blue reagent to each well.
# (§8) g. Incubate for four (4) hours at 37° C., 5% CO2 in a humidified incubator.
# (§9) h. Record fluorescence at an excitation wavelength of 544 nm and emission wavelength of 590 nm using a microplate reader.
# (§10) In the assays, cells are cultured with a test compound for approximately four days, the dye is then added to the cells and fluorescence of […] dye is detected after approximately four hours. Different types of cells can be utilized in the assays (e.g., HCT-116 human colorectal carcinoma cells, PC-3 human prostatic cancer cells, MDA-MB231 human breast cancer cells, K-562 human chronic myelogenous leukemia (CML) cells, MiaPaca human pancreatic carcinoma cells, MV-4 human acute myeloid leukemia cells, and BxPC3 human pancreatic adenocarcinoma cells).
# recombinant human PIM2 = recombinant human PIM2 (Homo sapiens (Human), UniProt Q9P1W9); assay: PIM-2 assay (33P-ATP filter binding); assay type: biochemical; conditions: for PIM2: % inh […]: at […] compound
# Sequence of recombinant human PIM2 (Q9P1W9 whole entry): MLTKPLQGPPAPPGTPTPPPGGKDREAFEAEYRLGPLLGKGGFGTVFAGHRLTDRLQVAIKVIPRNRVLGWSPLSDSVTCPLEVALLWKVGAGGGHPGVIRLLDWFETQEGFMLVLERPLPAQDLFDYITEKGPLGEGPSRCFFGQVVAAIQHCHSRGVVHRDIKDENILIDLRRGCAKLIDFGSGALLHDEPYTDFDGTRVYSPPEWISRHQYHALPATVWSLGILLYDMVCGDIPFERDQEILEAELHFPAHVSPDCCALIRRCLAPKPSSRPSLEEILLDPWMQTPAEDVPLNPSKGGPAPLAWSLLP
# MDAMB453 = assay: Cell proliferation assay with Alamar Blue (AB), MDAMB453; assay type: cell-based
# Method: as §1, §2, §3, §4, §5, §6, §7, §8, §9, §10
# CK2 ααββ = CK2 ααββ (Homo sapiens (Human), UniProt P68400); assay: CK2 assay (cell-free, 33P-ATP, phosphocellulose filter plate); assay type: biochemical
# Sequence of CK2 ααββ (P68400 whole entry): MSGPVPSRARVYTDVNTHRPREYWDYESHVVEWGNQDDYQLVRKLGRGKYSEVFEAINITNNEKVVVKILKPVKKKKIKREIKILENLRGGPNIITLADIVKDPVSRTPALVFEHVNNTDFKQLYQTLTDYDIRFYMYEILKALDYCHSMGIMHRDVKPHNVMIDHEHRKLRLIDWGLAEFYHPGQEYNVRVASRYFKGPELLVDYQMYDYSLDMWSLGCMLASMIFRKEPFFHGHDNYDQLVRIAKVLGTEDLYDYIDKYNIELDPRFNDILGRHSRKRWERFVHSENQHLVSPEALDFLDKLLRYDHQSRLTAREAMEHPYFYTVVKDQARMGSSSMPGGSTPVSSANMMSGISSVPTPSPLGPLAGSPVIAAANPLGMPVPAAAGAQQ
# Sequence of CK2 ααββ (P67870 whole entry partner): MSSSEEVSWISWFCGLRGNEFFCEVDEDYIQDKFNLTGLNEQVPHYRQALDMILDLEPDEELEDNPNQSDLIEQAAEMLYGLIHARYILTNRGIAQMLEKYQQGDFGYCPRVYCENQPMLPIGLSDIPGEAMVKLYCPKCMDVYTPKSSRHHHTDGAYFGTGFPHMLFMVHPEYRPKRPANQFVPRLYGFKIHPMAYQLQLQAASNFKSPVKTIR
# [2] = Homo sapiens, BXPC-3, read-out: AB: BxPC3
# [3] = read-out: PIM2: IC50 (5 μM ATP), 5 μM ATP
# [4] = Homo sapiens, MDA-MB-453, MDAMB453 cells, read-out: AB: MDAMB453
# [5] = PIM2: IC50 (5 μM ATP), 5 μM ATP
# [6] = MDAMB453 cells, read-out: AB: MDAMB453 IC50
# [7] = 5 um ATP, read-out: PIM2: IC50 (5 um ATP)
# [8] = MDAMB453 cells, read-out: AB: MDAMB453
SMILES,"IC50 [1, 2] [nM]",IC50 (MDAMB453; [4]) [nM],IC50 (CK2 ααββ) [nM],IC50 (recombinant human PIM2; [5]) [nM],further results
CC(=O)NC1CCC(Nc2cc(NC3CC3)n3ncc(/C=C4\NC(=O)NC4=O)c3n2)CC1 (stereo not drawn) [Example A3],> 30000,> 30000,< 10,–,IC50 (recombinant human PIM2; [3]): > 2500 nM
CN(C)C1CCN(C(=O)c2cccc(Nc3cc(Nc4cccc(Cl)c4)nc4c(/C=C5\NC(=O)NC5=O)cnn34)c2)C1 (stereo not drawn) [Example C7],> 30000,6440,< 10,1440,–
O=C1NC(=O)/C(=C/c2cnn3c(NCC4CC4)cc(Nc4ccc(Cl)nc4)nc23)N1 [Example X1],7990,6940,< 100,> 2500,–
O=C1NC(=O)/C(=C/c2cnn3c(NC4CC4)cc(-c4ccc(F)c(C(=O)N5CCOCC5)c4)nc23)N1 [Example F5],1810,948,< 10,> 2500,–
CN(C)CCCOc1cccc(-c2cc(NC3CC3)n3ncc(/C=C4\NC(=O)NC4=O)c3n2)c1 [Example Z3],2920,284,< 10,2210,–
Cc1c(N2CCN(c3ccccn3)CC2)nc2c(C=C3NC(=O)NC3=O)cnn2c1NC1CC1 [Example Q46],–,–,< 10,–,IC50 ([1]; read-out: AB: BxPC3 IC50): > 30000 nM; PIM2: % inh […] (recombinant human PIM2): 13.151%; IC50 (MDAMB453; [6]): > 30000 nM
CN1CCC(Nc2cc(NC3CC3)n3ncc(/C=C4\NC(=O)NC4=O)c3n2)CC1 [Example V2],1630,1480,< 10,1370,–
CN1C(=O)NC(=Cc2cnn3c(NC4CC4)cc(Nc4ccc(C#N)cc4)nc23)C1=O [Example D42],–,–,< 100,–,IC50 ([1]; read-out: AB: BxPC3 IC50): 2800 nM; PIM2: % inh […] (recombinant human PIM2): −39.275%; IC50 (MDAMB453; [6]): 693 nM
CN(C)c1ccc(-c2cc(NC3CC3)n3ncc(/C=C4\NC(=O)NC4=O)c3n2)cc1 [Example I4],1900,683,< 100,> 2500,–
O=C1NC(=O)C(=Cc2cnn3c(NC4CC4)cc(-c4csc(CN5CCCC5)c4)nc23)N1 [Compound Y13],–,–,< 10,–,IC50 ([1]; read-out: AB: BxPC3): 929 nM; IC50 (recombinant human PIM2; [3]): > 2500 nM; IC50 (MDAMB453; [8]): 1390 nM
CNc1cc(-c2cccc(CNC(C)=O)c2)nc2c(/C=C3\NC(=O)NC3=O)cnn12 [Example V4],> 30000,12400,< 100,> 2500,–
CC(C)(C)CC(=O)Nc1cc(NC2CC2)n2ncc(/C=C3\NC(=O)NC3=O)c2n1 [Example M2],4870,6680,< 10,359,–
O=C1NC(=O)/C(=C/c2cnn3c(NC4CC4)cc(-c4cccc(CN5CCOCC5)c4)nc23)N1 [Example M4],14400,> 30000,< 10,1250,–
CC1CN(Cc2cc(-c3cc(NC4CC4)n4ncc(C=C5NC(=O)NC5=O)c4n3)cs2)CC(C)O1 (stereo not drawn) [Compound A14],–,–,< 10,–,IC50 ([1]; read-out: AB: BxPC3): 1760 nM; IC50 (recombinant human PIM2; [3]): 1570 nM; IC50 (MDAMB453; [8]): 1610 nM
O=C1NC(=O)C(=Cc2cnn3c(NC4CC4)cc(Nc4ccc(OCCN5CCOCC5)cc4F)nc23)N1 [Example S42],–,–,< 10,–,IC50 ([1]; read-out: AB: BxPC3 IC50): 5000 nM; PIM2: % inh […] (recombinant human PIM2): 44.49%; IC50 (MDAMB453; [6]): 2740 nM
Cc1c(Nc2ccc(C#N)cc2F)nc2c(C=C3NC(=O)NC3=O)cnn2c1NC1CC1 [Example C46],–,–,< 10,–,IC50 ([1]; read-out: AB: BxPC3 IC50): 15200 nM; PIM2: % inh […] (recombinant human PIM2): 59.266%; IC50 (MDAMB453; [6]): 6290 nM
O=C1NC(=O)/C(=C/c2cnn3c(NC4CC4)cc(SCc4ccccc4)nc23)N1,11000,> 30000,< 10,–,IC50 (recombinant human PIM2; [7]): > 2500 nM
N#Cc1ccc(Oc2cc(NC3CC3)n3ncc(C=C4NC(=O)NC4=O)c3n2)c(Cl)c1 [Compound V38],–,–,< 10,–,"IC50 ([1]; read-out: AB: BxPC3 IC50): 5200 nM; IC50 (recombinant human PIM2; Tables 41B, 42B, read-out: PIM2: IC50): > 2500 nM; IC50 (MDAMB453; [6]): 1380 nM"
"Nc1cc(Nc2cccc(Cl)c2)nc2c(/C=C3\NC(=O)NC3=O)cnn12 [Example A1, 5-((7-amino-5-(3-chlorophenylamino)pyrazolo[1,5-a]pyrimidin-3-yl)methylene)imidazolidine-2,4-dione]",16600,2460,< 100,1180,–
O=C1NC(=O)/C(=C/c2cnn3c(NC4CC4)cc(-c4cccc(NS(=O)(=O)C5CC5)c4)nc23)N1 [Example Z4],29000,15700,< 10,> 2500,–
CCCCS(=O)(=O)Nc1cccc(-c2cc(NC3CC3)n3ncc(/C=C4\NC(=O)NC4=O)c3n2)c1 [Example Y4],2250,1980,< 10,> 2500,–
Nc1cc(NC2CC2)n2ncc(/C=C3\NC(=O)NC3=O)c2n1 [Example K2],9930,11800,< 10,> 2500,–

# Second part, led by results:
"IC50 [1, 2] [nM]",IC50 (MDAMB453; [4]) [nM],IC50 (CK2 ααββ) [nM],IC50 (recombinant human PIM2; [5]) [nM],SMILES,further results
16800,17700,< 10,> 2500,O=C1NC(=O)/C(=C/c2cnn3c(NC4CC4)cc(Nc4cccc(OC(F)(F)F)c4)nc23)N1 [Example E1],–
> 30000,4750,< 10,867,O=C1NC(=O)/C(=C/c2cnn3c(NC4CC4)cc(-c4cccc(F)c4)nc23)N1 [Example J4],–
–,–,< 10,–,CN(C)CCCOc1ccc(Nc2cc(NC3CC3)n3ncc(C=C4NC(=O)NC4=O)c3n2)cc1Cl [Example T42],IC50 ([1]; read-out: AB: BxPC3 IC50): 5330 nM; PIM2: % inh […] (recombinant human PIM2): 44.33%; IC50 (MDAMB453; [6]): 2090 nM
3920,7120,< 10,2480,O=C1NC(=O)/C(=C/c2cnn3c(NC4CC4)cc(Nc4cccc(C(F)(F)F)c4)nc23)N1 [Example J1],–
3160,936,< 1000,317,CC(O)CNc1cc(Nc2cccc(Cl)c2)nc2c(/C=C3\NC(=O)NC3=O)cnn12 (stereo not drawn) [Example K6],–
19700,> 30000,< 10,–,N#Cc1cccc(Cc2cc(NC3CC3)n3ncc(/C=C4\NC(=O)NC4=O)c3n2)c1,IC50 (recombinant human PIM2; [7]): > 2500 nM
15000,1040,< 10,> 2500,O=C1NC(=O)/C(=C/c2cnn3c(NC4CC4)cc(Nc4cccc(Cl)c4)nc23)N1 [Example C1],IC50 (recombinant human PIM2; read-out: PIM2: IC50): 1300 nM
5660,7710,< 10,> 2500,COc1ccc(Nc2cc(NC3CC3)n3ncc(/C=C4\NC(=O)NC4=O)c3n2)cc1Cl [Example K1],–
2400,993,< 10,> 2500,O=C1NC(=O)/C(=C/c2cnn3c(NC4CCN(C(=O)C5CC5)CC4)cc(Nc4cccc(Cl)c4)nc23)N1 [Example L5],–
5760,2040,< 10,> 2500,COc1cccc(Nc2cc(NC3CC3)n3ncc(/C=C4\NC(=O)NC4=O)c3n2)c1 [Example F1],–
3210,991,< 10,> 2500,O=C1NC(=O)/C(=C/c2cnn3c(NC4CC4)cc(Nc4ccc(Cl)c(C(F)(F)F)c4)nc23)N1 [Example H1],–
> 30000,12300,< 10,2080,CC(=O)c1cccc(-c2cc(NC3CC3)n3ncc(/C=C4\NC(=O)NC4=O)c3n2)c1 [Example W4],–
1920,717,< 1000,475,O=C1NC(=O)/C(=C/c2cnn3c(NCCO)cc(Nc4cccc(Cl)c4)nc23)N1 [Example D6],–
